# ± gives the expanded uncertainty stated by the source.
# Experiment: xn = mol fraction of the nth substance listed
# Settings: Fluid (supercritical or subcritical phases), Burnett expansion method
smiles,measurement,setting,value
CCC [propane] + O=C=O,mass density,"360.01 K, 5054 kPa, x2 = 0.8017",90.4354 ± 0.017 kg/m3
same,mass density,"360.01 K, 6218.2 kPa, x2 = 0.5158",141.203 ± 0.025 kg/m3
same,mass density,"360.02 K, 178.29 kPa, x2 = 0.8017",2.6378 ± 0.02 kg/m3
same,mass density,"360.02 K, 245.35 kPa, x2 = 0.8017",3.6378 ± 0.02 kg/m3
same,mass density,"360.02 K, 337.31 kPa, x2 = 0.8017",5.0167 ± 0.019 kg/m3
same,mass density,"360.02 K, 463.19 kPa, x2 = 0.8017",6.9183 ± 0.019 kg/m3
same,mass density,"360.02 K, 634.97 kPa, x2 = 0.8017",9.5406 ± 0.018 kg/m3
same,mass density,"360.02 K, 868.69 kPa, x2 = 0.8017",13.1566 ± 0.017 kg/m3
same,mass density,"360.02 K, 3863.5 kPa, x2 = 0.8017",65.5911 ± 0.014 kg/m3
same,mass density,"360.02 K, 6495 kPa, x2 = 0.8017",124.684 ± 0.019 kg/m3
same,mass density,"370 K, 1659.1 kPa, x2 = 0.8017",25.0073 ± 0.017 kg/m3
same,mass density,"370.01 K, 476.31 kPa, x2 = 0.8017",6.9151 ± 0.021 kg/m3
same,mass density,"370.01 K, 653.23 kPa, x2 = 0.8017",9.5361 ± 0.02 kg/m3
same,mass density,"370.01 K, 894.13 kPa, x2 = 0.8017",13.1504 ± 0.019 kg/m3
same,mass density,"370.01 K, 1220.3 kPa, x2 = 0.8017",18.1344 ± 0.018 kg/m3
same,mass density,"370.01 K, 2244.1 kPa, x2 = 0.8017",34.4826 ± 0.016 kg/m3
same,mass density,"370.01 K, 3013.9 kPa, x2 = 0.8017",47.5475 ± 0.015 kg/m3
same,mass density,"370.01 K, 5267 kPa, x2 = 0.8017",90.3909 ± 0.017 kg/m3
same,mass density,"370.02 K, 205.87 kPa, x2 = 0.5158",2.9726 ± 0.011 kg/m3
same,mass density,"370.02 K, 283.04 kPa, x2 = 0.5158",4.1011 ± 0.011 kg/m3
same,mass density,"370.02 K, 346.79 kPa, x2 = 0.8017",5.0143 ± 0.021 kg/m3
same,mass density,"370.02 K, 388.65 kPa, x2 = 0.5158",5.6577 ± 0.011 kg/m3
same,mass density,"370.02 K, 992.19 kPa, x2 = 0.5158",14.8545 ± 0.011 kg/m3
same,mass density,"370.02 K, 1345.8 kPa, x2 = 0.5158",20.4921 ± 0.011 kg/m3
same,mass density,"370.02 K, 1815.3 kPa, x2 = 0.5158",28.2684 ± 0.012 kg/m3
same,mass density,"370.02 K, 2426.9 kPa, x2 = 0.5158",38.9941 ± 0.012 kg/m3
same,mass density,"370.02 K, 3206 kPa, x2 = 0.5158",53.7882 ± 0.013 kg/m3
same,mass density,"370.02 K, 4009.4 kPa, x2 = 0.8017",65.5581 ± 0.014 kg/m3
same,mass density,"370.02 K, 4171 kPa, x2 = 0.5158",74.1924 ± 0.016 kg/m3
same,mass density,"370.02 K, 5317.2 kPa, x2 = 0.5158",102.331 ± 0.02 kg/m3
same,mass density,"370.02 K, 6617 kPa, x2 = 0.5158",141.135 ± 0.022 kg/m3
same,mass density,"370.02 K, 6810.4 kPa, x2 = 0.8017",124.62 ± 0.018 kg/m3
same,mass density,"370.03 K, 532.61 kPa, x2 = 0.5158",7.8051 ± 0.011 kg/m3
same,mass density,"370.03 K, 728.17 kPa, x2 = 0.5158",10.7675 ± 0.011 kg/m3
same,mass density,"380.02 K, 188.21 kPa, x2 = 0.8017",2.6354 ± 0.022 kg/m3
same,mass density,"380.02 K, 259.02 kPa, x2 = 0.8017",3.6346 ± 0.023 kg/m3
same,mass density,"380.02 K, 399.41 kPa, x2 = 0.5158",5.6555 ± 0.011 kg/m3
same,mass density,"380.02 K, 671.46 kPa, x2 = 0.8017",9.5319 ± 0.022 kg/m3
same,mass density,"380.02 K, 919.55 kPa, x2 = 0.8017",13.1448 ± 0.021 kg/m3
same,mass density,"380.02 K, 1255.9 kPa, x2 = 0.8017",18.1264 ± 0.02 kg/m3
same,mass density,"380.02 K, 1386.9 kPa, x2 = 0.5158",20.4838 ± 0.011 kg/m3
same,mass density,"380.02 K, 1709 kPa, x2 = 0.8017",24.9958 ± 0.019 kg/m3
same,mass density,"380.02 K, 1873.6 kPa, x2 = 0.5158",28.257 ± 0.012 kg/m3
same,mass density,"380.02 K, 3114.5 kPa, x2 = 0.8017",47.5261 ± 0.016 kg/m3
same,mass density,"380.02 K, 3326.5 kPa, x2 = 0.5158",53.7656 ± 0.013 kg/m3
same,mass density,"380.02 K, 4154.3 kPa, x2 = 0.8017",65.5297 ± 0.015 kg/m3
same,mass density,"380.02 K, 4347.6 kPa, x2 = 0.5158",74.1614 ± 0.015 kg/m3
same,mass density,"380.02 K, 5478.5 kPa, x2 = 0.8017",90.3475 ± 0.018 kg/m3
same,mass density,"380.02 K, 5579.3 kPa, x2 = 0.5158",102.287 ± 0.019 kg/m3
same,mass density,"380.02 K, 7122.7 kPa, x2 = 0.8017",124.564 ± 0.018 kg/m3
same,mass density,"380.03 K, 356.25 kPa, x2 = 0.8017",5.0122 ± 0.023 kg/m3
same,mass density,"380.03 K, 489.43 kPa, x2 = 0.8017",6.9121 ± 0.022 kg/m3
same,mass density,"380.03 K, 547.58 kPa, x2 = 0.5158",7.802 ± 0.011 kg/m3
same,mass density,"380.03 K, 749.01 kPa, x2 = 0.5158",10.7633 ± 0.011 kg/m3
same,mass density,"380.03 K, 1021.4 kPa, x2 = 0.5158",14.8485 ± 0.011 kg/m3
same,mass density,"380.03 K, 2314.7 kPa, x2 = 0.8017",34.4669 ± 0.017 kg/m3
same,mass density,"380.03 K, 2510.4 kPa, x2 = 0.5158",38.978 ± 0.012 kg/m3
same,mass density,"380.03 K, 7010.3 kPa, x2 = 0.5158",141.07 ± 0.021 kg/m3
same,mass density,"380.04 K, 211.45 kPa, x2 = 0.5158",2.9713 ± 0.011 kg/m3
same,mass density,"380.04 K, 290.81 kPa, x2 = 0.5158",4.0993 ± 0.011 kg/m3
same,mass density,"390.02 K, 2384.9 kPa, x2 = 0.8017",34.4507 ± 0.019 kg/m3
same,mass density,"390.02 K, 3446.3 kPa, x2 = 0.5158",53.7433 ± 0.013 kg/m3
same,mass density,"390.02 K, 5838.5 kPa, x2 = 0.5158",102.241 ± 0.018 kg/m3
same,mass density,"390.03 K, 193.15 kPa, x2 = 0.8017",2.6342 ± 0.025 kg/m3
same,mass density,"390.03 K, 217.06 kPa, x2 = 0.5158",2.9702 ± 0.011 kg/m3
same,mass density,"390.03 K, 265.87 kPa, x2 = 0.8017",3.6329 ± 0.025 kg/m3
same,mass density,"390.03 K, 365.64 kPa, x2 = 0.8017",5.0098 ± 0.025 kg/m3
same,mass density,"390.03 K, 410.13 kPa, x2 = 0.5158",5.6532 ± 0.011 kg/m3
same,mass density,"390.03 K, 502.51 kPa, x2 = 0.8017",6.9089 ± 0.024 kg/m3
same,mass density,"390.03 K, 689.66 kPa, x2 = 0.8017",9.5275 ± 0.024 kg/m3
same,mass density,"390.03 K, 769.82 kPa, x2 = 0.5158",10.759 ± 0.011 kg/m3
same,mass density,"390.03 K, 944.86 kPa, x2 = 0.8017",13.1385 ± 0.023 kg/m3
same,mass density,"390.03 K, 1050.5 kPa, x2 = 0.5158",14.8425 ± 0.011 kg/m3
same,mass density,"390.03 K, 1428 kPa, x2 = 0.5158",20.475 ± 0.011 kg/m3
same,mass density,"390.03 K, 1758.8 kPa, x2 = 0.8017",24.9833 ± 0.021 kg/m3
same,mass density,"390.03 K, 1931.7 kPa, x2 = 0.5158",28.245 ± 0.012 kg/m3
same,mass density,"390.03 K, 2593.4 kPa, x2 = 0.5158",38.9614 ± 0.012 kg/m3
same,mass density,"390.03 K, 3214.7 kPa, x2 = 0.8017",47.5025 ± 0.017 kg/m3
same,mass density,"390.03 K, 4298.5 kPa, x2 = 0.8017",65.4967 ± 0.016 kg/m3
same,mass density,"390.03 K, 4522.9 kPa, x2 = 0.5158",74.1282 ± 0.014 kg/m3
same,mass density,"390.03 K, 5688.3 kPa, x2 = 0.8017",90.3013 ± 0.017 kg/m3
same,mass density,"390.03 K, 7399 kPa, x2 = 0.5158",141.004 ± 0.019 kg/m3
same,mass density,"390.03 K, 7432.4 kPa, x2 = 0.8017",124.497 ± 0.017 kg/m3
same,mass density,"390.04 K, 298.57 kPa, x2 = 0.5158",4.0977 ± 0.011 kg/m3
same,mass density,"390.04 K, 562.52 kPa, x2 = 0.5158",7.7989 ± 0.011 kg/m3
same,mass density,"390.04 K, 1291.3 kPa, x2 = 0.8017",18.1174 ± 0.022 kg/m3
same,mass density,"400.02 K, 970.17 kPa, x2 = 0.8017",13.1371 ± 0.024 kg/m3
same,mass density,"400.03 K, 272.65 kPa, x2 = 0.8017",3.6324 ± 0.027 kg/m3
same,mass density,"400.03 K, 375.15 kPa, x2 = 0.8017",5.0093 ± 0.026 kg/m3
same,mass density,"400.03 K, 515.7 kPa, x2 = 0.8017",6.908 ± 0.026 kg/m3
same,mass density,"400.03 K, 577.33 kPa, x2 = 0.5158",7.7944 ± 0.011 kg/m3
same,mass density,"400.03 K, 707.92 kPa, x2 = 0.8017",9.5262 ± 0.025 kg/m3
same,mass density,"400.03 K, 790.53 kPa, x2 = 0.5158",10.7528 ± 0.011 kg/m3
same,mass density,"400.03 K, 1079.5 kPa, x2 = 0.5158",14.8335 ± 0.011 kg/m3
same,mass density,"400.03 K, 1326.5 kPa, x2 = 0.8017",18.1154 ± 0.023 kg/m3
same,mass density,"400.03 K, 1468.7 kPa, x2 = 0.5158",20.4633 ± 0.011 kg/m3
same,mass density,"400.03 K, 1808.4 kPa, x2 = 0.8017",24.9801 ± 0.022 kg/m3
same,mass density,"400.03 K, 2454.9 kPa, x2 = 0.8017",34.4454 ± 0.021 kg/m3
same,mass density,"400.03 K, 3565.3 kPa, x2 = 0.5158",53.7096 ± 0.013 kg/m3
same,mass density,"400.03 K, 6095.5 kPa, x2 = 0.5158",102.176 ± 0.015 kg/m3
same,mass density,"400.03 K, 7739.4 kPa, x2 = 0.8017",124.476 ± 0.017 kg/m3
same,mass density,"400.03 K, 7784.2 kPa, x2 = 0.5158",140.912 ± 0.018 kg/m3
same,mass density,"400.04 K, 198.07 kPa, x2 = 0.8017",2.6338 ± 0.027 kg/m3
same,mass density,"400.04 K, 222.65 kPa, x2 = 0.5158",2.9684 ± 0.011 kg/m3
same,mass density,"400.04 K, 306.29 kPa, x2 = 0.5158",4.0953 ± 0.011 kg/m3
same,mass density,"400.04 K, 420.82 kPa, x2 = 0.5158",5.6498 ± 0.011 kg/m3
same,mass density,"400.04 K, 1989.5 kPa, x2 = 0.5158",28.2277 ± 0.012 kg/m3
same,mass density,"400.04 K, 2676 kPa, x2 = 0.5158",38.9372 ± 0.012 kg/m3
same,mass density,"400.04 K, 3314.3 kPa, x2 = 0.8017",47.4952 ± 0.019 kg/m3
same,mass density,"400.04 K, 4441.8 kPa, x2 = 0.8017",65.4859 ± 0.017 kg/m3
same,mass density,"400.04 K, 4696.7 kPa, x2 = 0.5158",74.0811 ± 0.013 kg/m3
same,mass density,"400.04 K, 5896.6 kPa, x2 = 0.8017",90.2853 ± 0.016 kg/m3

# Reference: the NIST ThermoML archive (doi:10.1021/je100148h)
